# Results published in patent US20220251569A1, “TREATMENT AND PREVENTION OF DISEASE MEDIATED BY WWP2” (National University of Singapore, priority 2019, published 2022).
# Key:
# [1] = target: T1, WWP2-N (Homo sapiens, UniProt O00308); test: Octet RED binding assay to WWP2-N; conditions: compound at 250 μM, binding measured over 120 seconds, Octet RED96e
# T1 construct: GST; made in house
# T1 sequence (O00308 1-335 limits assumed): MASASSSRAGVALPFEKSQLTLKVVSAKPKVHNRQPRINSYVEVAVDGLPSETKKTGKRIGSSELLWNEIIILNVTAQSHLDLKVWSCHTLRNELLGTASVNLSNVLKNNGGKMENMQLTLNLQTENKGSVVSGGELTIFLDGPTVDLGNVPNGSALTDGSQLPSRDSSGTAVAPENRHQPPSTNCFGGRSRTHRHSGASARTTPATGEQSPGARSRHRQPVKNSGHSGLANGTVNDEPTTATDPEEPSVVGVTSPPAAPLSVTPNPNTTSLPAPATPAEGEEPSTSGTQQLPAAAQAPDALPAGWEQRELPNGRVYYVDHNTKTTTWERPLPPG
# Procedure: (§1) The WWP2 isoforms WWP2-FL, WWP2-N and WWP2-C were expressed as a GST fusion protein in bacteria and purified using glutathione sepharose 4B resin (GE Healthcare) according to the manufacturer's instructions. Expression and purity of the expressed WWP2 proteins was analysed by Coomassie Blue staining of the gel after separation by SDS-PAGE and western blotting (WB).
# (§2) Binding assays were performed using the Octet RED96e System (FortéBio Inc., Menlo Park, Calif.). WWP2-FL, WWP2-N and WWP2-C proteins were biotinylated using NHS-PEO4-biotin (Pierce). Super-streptavidin (SSA) biosensors (FortéBio Inc., Menlo Park, Calif.) were coated in a solution containing 1 μM of biotinylated protein for 4 hours at 25° C. A duplicate set of sensors were incubated in assay buffer (1× kinetics buffer of ForteBio Inc.) with 5% DMSO without protein, for use as a background binding control. Both sets of sensors were blocked with a solution of 10 ug/ml Biocytin for 5 minutes at 25° C. A negative control of 5% DMSO was also used.
# (§3) Binding of samples containing the different compounds (at a concentration of 250 μM) to coated and uncoated reference sensors was measured over 120 seconds. Analysis of the data was performed using a double reference subtraction (sample and sensor references) in the FortéBio data analysis software. […]
# [2] = target: T2, WWP2-C (Homo sapiens, UniProt O00308); test: Octet RED binding assay to WWP2-C; conditions: compound at 250 μM, binding measured over 120 seconds, Octet RED96e
# T2 construct: GST; made in house
# T2 sequence (O00308 440-870 limits assumed): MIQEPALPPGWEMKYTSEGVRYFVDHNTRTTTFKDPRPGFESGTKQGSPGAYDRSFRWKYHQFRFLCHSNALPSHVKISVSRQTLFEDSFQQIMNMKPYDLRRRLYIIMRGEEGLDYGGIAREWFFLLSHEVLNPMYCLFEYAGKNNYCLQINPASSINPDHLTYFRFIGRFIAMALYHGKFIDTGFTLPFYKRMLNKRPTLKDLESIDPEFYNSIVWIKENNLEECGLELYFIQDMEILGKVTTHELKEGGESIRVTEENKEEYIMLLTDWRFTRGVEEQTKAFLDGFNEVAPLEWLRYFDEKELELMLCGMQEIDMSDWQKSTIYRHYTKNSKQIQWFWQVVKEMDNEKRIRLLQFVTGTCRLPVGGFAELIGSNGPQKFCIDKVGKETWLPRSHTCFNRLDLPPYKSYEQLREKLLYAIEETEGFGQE
# Procedure: as §1, §2, §3
# [3] = test system: primary renal fibroblasts; test: Cellular fibrosis assay (ACTA2 immunostaining) in TGFβ1-stimulated primary renal fibroblasts; assay type: cell-based, mice; conditions: compound 0.3 mM for 1 hour, then TGFβ1 stimulation 72 hours; fluorescence microscopy
# Procedure: Primary renal fibroblasts were obtained from the renal cortex of mice. Minced renal cortex pieces (1-3 mm^3) were placed in 6 cm dishes with DMEM supplemented with 20% fetal bovine serum for less than 10 days to generate mice renal fibroblasts (P0), and passaged to P1 and P2 in DMEM supplemented with 10% fetal bovine serum for experiments. To mimic the in vivo activation of renal fibroblasts in fibrosis, cells were treated with human transforming growth factor-β1 (TGFβ1) (Sigma Aldrich, #T7039) at a concentration of 5 ng/μl for 72 hours.
# To test the anti-fibrotic effect of candidate small-molecules, cells were treated with each compound (0.3 mM) for 1 hour, followed by stimulation with TGFβ1 before harvesting. After fixation with ice-cold acetone and blocking with 1% BSA for 30 min at RT, the slides were incubated with primary anti-smooth muscle a actin (ACTA2) antibody (ACTA2 is a widely recognised myofibroblast marker, indicating fibroblast activation) (Sigma-Aldrich, #A5228, 1:100) overnight at 4° C. Following washing steps, slides were incubated with Bovine Anti-Mouse IgG-CFL 488 secondary antibody (Santacruz Biotechnology, #sc-362256, 1:100) for 2 hours at RT. VectaShield Mounting Medium (Vector laboratories, #H-1200) with DAPI was used to stain the nuclei and the slides were covered by coverslip. Slides were imaged on Leica fluorescence microscope (Leica).
smiles,measurement,setting,value
"COc1ccc(-n2c(=O)c3c4c(sc3n(CC(=O)NCc3ccco3)c2=O)CCC4)c(OC)c1 [EP1, 2-[11-(2,4-dimethoxyphenyl)-10,12-dioxo-7-thia-9,11-diazatricyclo[6.4.0.02.6]dodeca-1(8),2(6)-dien-9-yl]-N-(furan-2-ylmethyl)acetamide]",Binding level (nm) to WWP2 N isoform,[1],0.1253 nm
same,Binding level (nm) to WWP2 C isoform,[2],0.0061 nm
same,Anti-fibrotic response in renal fibroblasts (ACTA2 expression),[3],reduced expression of ACTA2
